#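 Each compound was tested at five concentrations against cells in 96-well plates for 48 hours. GI50 = concentration required for 50% inhibition of growth. The concentration for full growth arrest is given as TGI.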
# Assays:
# Experiment in all cases: inhibition of tumour cell growth, NCI panel, 48 h
# CAKI-1 renal = test system: CAKI-1 renal
# COLO 205 colon = test system: COLO 205 colon
# KM12 colon = test system: KM12 colon
# MDA-MB-231 breast = test system: MDA-MB-231 breast
# NCI-H226 lung = test system: NCI-H226 lung
# NCI-H23 lung = test system: NCI-H23 lung
# RPMI-8226 leukemia = test system: RPMI-8226 leukemia
# RXF 393 renal = test system: RXF 393 renal
# SF-539 CNS = test system: SF-539 CNS
# SNB-19 CNS = test system: SNB-19 CNS
SMILES,GI50 (CAKI-1 renal) [µM],TGI (CAKI-1 renal) [µM],GI50 (COLO 205 colon) [µM],TGI (COLO 205 colon) [µM],GI50 (KM12 colon) [µM],TGI (KM12 colon) [µM],GI50 (MDA-MB-231 breast) [µM],TGI (MDA-MB-231 breast) [µM],GI50 (NCI-H226 lung) [µM],TGI (NCI-H226 lung) [µM],GI50 (NCI-H23 lung) [µM],TGI (NCI-H23 lung) [µM],GI50 (RPMI-8226 leukemia) [µM],TGI (RPMI-8226 leukemia) [µM],GI50 (RXF 393 renal) [µM],TGI (RXF 393 renal) [µM],GI50 (SF-539 CNS) [µM],TGI (SF-539 CNS) [µM],GI50 (SNB-19 CNS) [µM],TGI (SNB-19 CNS) [µM]
Nc1c(C(=O)Nc2ccccc2)sc2nc3c(cc12)C(=O)CCC3,0.485,> 100,0.364,2.99,0.323,> 100,2.32,> 100,3.91,> 100,0.833,> 100,0.303,> 100,0.19,0.619,0.384,> 26.1,0.73,> 100
O=c1[nH]c(=S)[nH]c(O)c1/C=C1\C=Nc2ccccc21,3.61,20.3,3.77,18.3,1.64,3.34,4.1,33.6,12.5,46.1,12.4,44.2,2.34,6.49,3.71,14.6,3.11,9.87,4.53,59.3
C/C(=N\NC(=S)N1CCC1)c1ccccn1,,75.3,0.00486,> 100,0.0477,46.7,,> 100,0.0117,3.48,0.00622,39.7,0.00499,> 63.5,,4.39,0.0629,5.31,,> 100
NC(=O)c1nc(-c2c(F)cccc2Cl)oc1Nc1ccc(C(=O)N2CCOCC2)cc1,1.44,> 100,1.64,5.89,0.326,> 100,1.86,> 100,0.266,> 100,2.91,> 100,7.44,50.7,0.964,5.54,1.32,5.16,3,> 100
CCOC(=O)[C@@H](C)C[C@H](Cc1ccccc1)NC(=O)c1csc([C@@H](C[C@H](C(C)C)N(C)C(=O)CNC(=O)[C@H]2CCCCN2C)OC(C)=O)n1,0.771,> 14.3,0.483,3.64,0.556,> 14.3,1.44,> 10.8,> 5.67,> 14.3,2.34,> 14.3,0.496,> 14.3,0.502,4.62,1.74,5.46,0.758,> 14.3
COc1cc([C@@H]2c3cc4c(cc3[C@H](SC(=N)N)[C@H]3COC(=O)[C@H]23)OCO4)cc(OC)c1OC,0.249,17.3,0.198,0.422,0.0944,0.409,0.388,> 100,0.573,> 100,0.299,> 100,0.409,32,2.3,35.6,0.144,> 100,0.449,> 100
S=C(Sc1ccc(Cl)cc1)Sc1ccc(Cl)cc1,2.96,10.3,2.29,5.5,2.74,8.64,2.19,4.36,2.1,4.84,1.75,3.78,1.09,3,2.04,3.87,1.74,3.84,3.8,16
C#COc1cccc(Nc2ncnc3cc(NC(=O)[C@@H](C)Cl)ccc23)c1,10.2,> 62.5,5.3,> 62.5,3.25,> 62.5,17.2,> 62.5,50.1,> 62.5,17.2,> 62.5,13.8,> 62.5,8.12,40.8,8.61,46,19.2,> 62.5
CN(C)CCCOc1ccc(NC2=C(Cl)C(=O)C(Nc3ccc(OCCCN(C)C)cc3)=C(Cl)C2=O)cc1,1.91,3.53,0.239,0.589,0.801,2.25,0.656,1.49,1.92,3.83,0.292,1.02,2.01,5.22,1.19,2.45,1.79,3.19,1.73,3.39
OCC1OC(OC2(CO)OC(CO)C(O)C2O)C(O)C(O)C1O (stereo unspecified),> 100,> 100,> 100,> 100,> 100,> 100,> 100,> 100,> 100,> 100,> 100,> 100,> 100,> 100,> 100,> 100,> 100,> 100,> 100,> 100
Nc1ncnc2c1c(-c1ccc(Oc3ccccc3)cc1)nn2CC1SSCC1O (stereo unspecified),3.71,12.7,1.25,5.5,0.324,7.67,5.36,16.8,3.7,9.91,1.7,7.97,5.05,21.3,2.74,9.62,1.05,8.19,5.51,13
CC(=O)Nc1cccc(C#Cc2cncnc2Nc2ccc(OCc3cccc(F)c3)c(Cl)c2)c1,3.3,> 25,9.17,> 25,9.64,> 25,15.6,> 25,10,> 25,10.6,> 25,12.7,> 25,0.753,> 15.1,14.9,> 25,24.6,> 25

# Source: PubChem BioAssay (NCI)
